Source: US12570988B2, “Aptamers that bind thiamine analogs and derivatives” (MeiraGTx Gene Regulation Limited, priority 2020, dated 2026)

How the values were obtained:
riboswitch 15D10 [1] = test: Luciferase reporter with 15D10 riboswitch (Luci-15D10) in HEK 293 cells; format: cell-based, human; conditions: HEK 293 cells; for fold induction at 50 µM: Homo sapiens, HEK293, 24 h, read-out: Fold increase in riboswitch 15D10-regulated luciferase expression, HEK
Procedure, shortened: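 Cells transfected with riboswitch-luciferase plasmid; 4 h later medium replaced with TPP or thiamine analogs (fursultiamine, prosultiamine, bisbentiamine, beclotiamine, sulbutiamine) as inducers.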

riboswitch 15D10 [2] = test: Luciferase reporter with 15D10 riboswitch (Luci-15D10) in AML12 cells; format: cell-based, mouse; conditions: for fold induction at 50 µM: Mus musculus, AML12, 24 h, read-out: Fold increase in riboswitch 15D10-regulated luciferase expression, AML

Compound | fold induction at 50 µM (riboswitch 15D10 [1]; 50 μM, Table 2) | fold induction at 50 µM (riboswitch 15D10 [2]; 50 μM, AML12 cells, Table 2) | fold induction at 50 µM (riboswitch 15D10 [1]; 50 μM, Table 3) | fold induction at 50 µM (riboswitch 15D10 [2]; 50 μM, AML12 cells, Table 3) | further results
C/C(=C(\CCO)SC(=O)c1cccc2ccccc12)N(C=O)Cc1cnc(C)nc1N [Compound M34, (Z)—S-(2-(N-((4-Amino-2-methylpyrimidin-5-yl)methyl)formamido)-5-hydroxypent-2-en-3-yl) naphthalene-1-carbothioate] | 164 | 291 |  |  | effect on luciferase expression from Luci-15D10 (riboswitch 15D10 [1]; FIG. 9A, 9C): increased luciferase expression; relative potency in inducing luciferase expression (riboswitch 15D10 [1]; compared with fursultiamine or within Formula V/VI groups): most potent compound; relative potency in inducing luciferase expression (riboswitch 15D10 [2]; AML 12 cells, compared with fursultiamine or within groups): most potent inducer
C/C(=C(\CCO)SCOC(=O)C(C)(C)c1ccc2ccccc2c1)N(C=O)Cc1cnc(C)nc1N [Compound M107, (Z)-((2-(N-((4-amino-2-methylpyrimidin-5-yl)methyl)formamido)-5-hydroxypent-2-en-3-yl)thio)methyl 2-methyl-2-(naphthalen-2-yl)propanoate] | 26 | 40.2 |  |  | 
C/C(=C(\CCO)SC(=O)c1ccccc1Oc1ccc(N2CCCC2=O)cc1)N(C=O)Cc1cnc(C)nc1N [Compound M155, (Z)—S-(2-(N-((4-amino-2-methylpyrimidin-5-yl)methyl)formamido)-5-hydroxypent-2-en-3-yl) 2-(4-(2-oxopyrrolidin-1-yl)phenoxy)benzothioate] |  |  | 7.71 | 117 | 
C/C(=C(\CCO)SC(=O)c1ccc(Br)c2ccccc12)N(C=O)Cc1cnc(C)nc1N [Compound M39, (Z)—S-(2-(N-((4-amino-2-methylpyrimidin-5-yl)methyl)formamido)-5-hydroxypent-2-en-3-yl) 4-bromonaphthalene-1-carbothioate] | 103 | 127 |  |  | 
C/C(=C(\CCO)SCOC(=O)C(C)(c1ccccc1)c1ccccc1)N(C=O)Cc1cnc(C)nc1N [Compound M103, (Z)-((2-(N-((4-amino-2-methylpyrimidin-5-yl)methyl)formamido)-5-hydroxypent-2-en-3-yl)thio)methyl 2,2-diphenylpropanoate] | 0.9 | 0.5 |  |  | 
C/C(=C(\CCO)SC(=O)c1ccc2c(c1)C(C)(C)CCC2(C)C)N(C=O)Cc1cnc(C)nc1N [Compound M50, (Z)—S-(2-(N-((4-amino-2-methylpyrimidin-5-yl)methyl)formamido)-5-hydroxypent-2-en-3-yl) 5,5,8,8-tetramethyl-5,6,7,8-tetrahydronaphthalene-2-carbothioate] | 93.5 | 142 |  |  | 
CCOc1ccc(C(=O)S/C(CCO)=C(/C)N(C=O)Cc2cnc(C)nc2N)c2ccccc12 [Compound M109, (Z)—S-(2-(N-((4-amino-2-methylpyrimidin-5-yl)methyl)formamido)-5-hydroxypent-2-en-3-yl) 4-ethoxynaphthalene-1-carbothioate] | 22.6 | 87.3 |  |  | 
C/C(=C(\CCO)SC(=O)c1ccc(C(C)(C)C)cc1Oc1ccccc1)N(C=O)Cc1cnc(C)nc1N [Compound M145, (Z)—S-(2-(N-((4-amino-2-methylpyrimidin-5-yl)methyl)formamido)-5-hydroxypent-2-en-3-yl) 4-(tert-butyl)-2-phenoxybenzothioate] |  |  | 156 | 60.6 | 
C/C(=C(\CCO)SC(=O)c1cc(Cl)ccc1Oc1ccccc1)N(C=O)Cc1cnc(C)nc1N [Compound M131, (Z)—S-(2-(N-((4-amino-2-methylpyrimidin-5-yl)methyl)formamido)-5-hydroxypent-2-en-3-yl) 5-chloro-2-phenoxybenzothioate] |  |  | 741 | 509 | 
CCc1ccc(C(=O)S/C(CCO)=C(/C)N(C=O)Cc2cnc(C)nc2N)c2ccccc12 [Compound M110, (Z)—S-(2-(N-((4-amino-2-methylpyrimidin-5-yl)methyl)formamido)-5-hydroxypent-2-en-3-yl) 4-ethylnaphthalene-1-carbothioate] | 65.7 | 146 |  |  | 
CCOc1ccc2ccccc2c1C(=O)OCS/C(CCO)=C(/C)N(C=O)Cc1cnc(C)nc1N [Compound M100, (Z)-((2-(N-((4-amino-2-methylpyrimidin-5-yl)methyl)formamido)-5-hydroxypent-2-en-3-yl)thio)methyl 2-ethoxy-1-naphthoate] | 1.1 | 0.4 |  |  | 
C/C(=C(\CCO)SC(=O)c1cc2ccccc2c2ccccc12)N(C=O)Cc1cnc(C)nc1N [Compound M40, (Z)—S-(2-(N-((4-amino-2-methylpyrimidin-5-yl)methyl)formamido)-5-hydroxypent-2-en-3-yl) phenanthrene-9-carbothioate] |  |  |  |  | Fold increase in riboswitch 15D10-regulated luciferase expression, HEK (riboswitch 15D10 [1]; 50 μM, Table 2): 83.1 fold; Fold increase in riboswitch 15D10-regulated luciferase expression, AML (riboswitch 15D10 [2]; 50 μM, AML12 cells, Table 2): 206.0 fold
C/C(=C(\CCO)SCOC(=O)C(C)(C)Cc1ccc2ccccc2c1)N(C=O)Cc1cnc(C)nc1N [Compound M101, (Z)-((2-(N-((4-amino-2-methylpyrimidin-5-yl)methyl)formamido)-5-hydroxypent-2-en-3-yl)thio)methyl 2,2-dimethyl-3-(naphthalen-2-yl)propanoate] | 88.6 | 128 |  |  | 
C/C(=C(\CCO)SC(=O)c1ccccc1Oc1cccc2cccnc12)N(C=O)Cc1cnc(C)nc1N [Compound M141, (Z)—S-(2-(N-((4-amino-2-methylpyrimidin-5-yl)methyl)formamido)-5-hydroxypent-2-en-3-yl) 2-(quinolin-8-yloxy)benzothioate] |  |  | 1.61 | 3.46 | 
COCCOc1ccc(C(=O)S/C(CCO)=C(/C)N(C=O)Cc2cnc(C)nc2N)cc1 [Compound M82, (Z)—S-(2-(N-((4-amino-2-methylpyrimidin-5-yl)methyl)formamido)-5-hydroxypent-2-en-3-yl) 4-(2-methoxyethoxy)benzothioate] | 89.2 | 73.9 |  |  | 
C/C(=C(\CCO)SC(=O)c1cccc2cccc(C)c12)N(C=O)Cc1cnc(C)nc1N [Compound M46, (Z)—S-(2-(N-((4-amino-2-methylpyrimidin-5-yl)methyl)formamido)-5-hydroxypent-2-en-3-yl) 8-methylnaphthalene-1-carbothioate] | 1.3 | 6 |  |  | 
C/C(=C(\CCO)SC(=O)c1ccccc1Sc1ccccc1)N(C=O)Cc1cnc(C)nc1N [Compound M153, (Z)—S-(2-(N-((4-amino-2-methylpyrimidin-5-yl)methyl)formamido)-5-hydroxypent-2-en-3-yl) 2-(phenylthio)benzothioate] |  |  | 442 | 535 | 
C/C(=C(\CCO)SC(=O)c1ccc2oc3ccccc3c2c1)N(C=O)Cc1cnc(C)nc1N [Compound M76, (Z)—S-(2-(N-((4-amino-2-methylpyrimidin-5-yl)methyl)formamido)-5-hydroxypent-2-en-3-yl) dibenzo[b,d]furan-2-carbothioate] | 60.7 | 134 |  |  | 
C/C(=C(\CCO)SC(=O)c1ccccc1Oc1ccccc1Br)N(C=O)Cc1cnc(C)nc1N [Compound M137, (Z)—S-(2-(N-((4-amino-2-methylpyrimidin-5-yl)methyl)formamido)-5-hydroxypent-2-en-3-yl) 2-(2-bromophenoxy)benzothioate] |  |  | 140 | 288 | 
C/C(=C(\CCO)SC(=O)c1ccc(Oc2ccccc2)cc1Oc1ccccc1)N(C=O)Cc1cnc(C)nc1N [Compound M152, (Z)—S-(2-(N-((4-amino-2-methylpyrimidin-5-yl)methyl)formamido)-5-hydroxypent-2-en-3-yl) 2,4-diphenoxybenzothioate] |  |  | 68.9 | 36.6 | 
C/C(=C(\CCO)SC(=O)c1cc(Cl)ccc1Oc1ccccc1Cl)N(C=O)Cc1cnc(C)nc1N [Compound M158, (Z)—S-(2-(N-((4-amino-2-methylpyrimidin-5-yl)methyl)formamido)-5-hydroxypent-2-en-3-yl) 5-chloro-2-(2-chlorophenoxy)benzothioate] |  |  | 96.9 | 235 | 
C/C(=C(\CCO)SC(=O)c1c(F)cccc1Oc1ccccc1Br)N(C=O)Cc1cnc(C)nc1N [Compound M160, (Z)—S-(2-(N-((4-amino-2-methylpyrimidin-5-yl)methyl)formamido)-5-hydroxypent-2-en-3-yl) 2-(2-bromophenoxy)-6-fluorobenzothioate] |  |  | 79.5 | 131 | 
COc1ccc(C(=O)S/C(CCO)=C(/C)N(C=O)Cc2cnc(C)nc2N)c2ccccc12 [Compound M47, (Z)—S-(2-(N-((4-amino-2-methylpyrimidin-5-yl)methyl)formamido)-5-hydroxypent-2-en-3-yl) 4-methoxynaphthalene-1-carbothioate] | 25.3 | 85.1 |  |  | 
C/C(=C(\CCO)SCOC(=O)c1ccc2c(c1)C(C)(C)CCC2(C)C)N(C=O)Cc1cnc(C)nc1N [Compound M99, (Z)-((2-(N-((4-amino-2-methylpyrimidin-5-yl)methyl)formamido)-5-hydroxypent-2-en-3-yl)thio)methyl 5,5,8,8-tetramethyl-5,6,7,8-tetrahydronaphthalene-2-carboxylate] | 0.2 | 0.4 |  |  | 
C/C(=C(\CCO)SC(=O)c1c(C)cc(C(C)(C)C)cc1C)N(C=O)Cc1cnc(C)nc1N [Compound M67, (Z)—S-(2-(N-((4-amino-2-methylpyrimidin-5-yl)methyl)formamido)-5-hydroxypent-2-en-3-yl) 4-(tert-butyl)-2,6-dimethylbenzothioate] | 2.1 | 0.9 |  |  | 
